Measured values published in PMC3328499 (PLoS ONE, 2012).

Experiments:
Nd-MalFGK2 [1] = target: T1, Nd-MalFGK2 (Escherichia coli, UniProt P02916+P68183+P68187); test: ATPase activity of MalFGK2 in nanodiscs; assay type: biochemical, E. coli
T1 construct: made in house; host or cells: E. coli BL21
Experimental: Figure 1 ATPase activity of the MalFGK2 complex in nanodiscs. (A) The MalFGK2 complex in nanodisc (lane 1) and detergent solution (lane 2) was analyzed by BN-PAGE and CN-PAGE followed by Coomassie blue staining of the gel. Molecular weight markers: BSA (67/134 kDa); catalase (232 kDa); ferritin (440 kDa). On CN-PAGE, the MalFGK2 complex precipitates as a protein smear at the top of the gel. […] The reported values were derived from 3 independent experiments.
(§1) Samples were analyzed by CN-PAGE and autoradiography. […] After incubation (10 min, 37°C), samples were analyzed by CN-PAGE and autoradiography. […] The reported values were derived from 3 independent experiments.
(§2) The MalFGK2 ATPase activity was determined by monitoring the release of inorganic phosphate using photo-colorimetric method. Linear gradient blue-native (BN) and colorless-native (CN) gel electrophoresis was performed as described. Sucrose gradient analysis was performed as described. MalE was iodinated using the Iodogen reagent (Pierce-Thermo Scientific). The specific activity of [^125I]-MalE was ∼2×10^5 c.p.m./μg.

Nd-MalFGK2 [2] = target: T1, Nd-MalFGK2; test: Native-PAGE (CN-PAGE) binding of [125I]-MalE to Nd-MalFGK2; set-up: species or system E. coli; settings: maltose 1 mM, AMP-PNP or ATP plus vanadate
Experimental: After incubation (10 min, 37°C), samples were analyzed by CN-PAGE followed by Coomassie blue staining (bottom part) and autoradiography (upper part). […] After incubation (10 min, 37°C), samples were analyzed by CN-PAGE followed by Coomassie blue staining (bottom part) then autoradiography (upper part). […] After incubation (10 min, 37°C), samples were analyzed by CN-PAGE and autoradiography. […] The position MalE-31 and MalF-177 are indicated in red. […] When the data were fitted to one-site binding equation, the dissociation constant in the presence of AMP-PNP was ∼79 nM.
as §1, §2

MalE-MalFGK2 complex = target: T2, MalE-MalFGK2 complex (Escherichia coli, UniProt P02916+P0AEX9+P68183+P68187, T177W/T57C); test: Maltose affinity of transporter-bound MalE (fluorescence quenching, competitive fit and equilibrium titration); assay type: binding, E. coli; settings: sugar 1 mM added to preformed complex, AMP-PNP
T2 construct: made in house; host or cells: E. coli BL21
T2 sequence (P68187 whole entry): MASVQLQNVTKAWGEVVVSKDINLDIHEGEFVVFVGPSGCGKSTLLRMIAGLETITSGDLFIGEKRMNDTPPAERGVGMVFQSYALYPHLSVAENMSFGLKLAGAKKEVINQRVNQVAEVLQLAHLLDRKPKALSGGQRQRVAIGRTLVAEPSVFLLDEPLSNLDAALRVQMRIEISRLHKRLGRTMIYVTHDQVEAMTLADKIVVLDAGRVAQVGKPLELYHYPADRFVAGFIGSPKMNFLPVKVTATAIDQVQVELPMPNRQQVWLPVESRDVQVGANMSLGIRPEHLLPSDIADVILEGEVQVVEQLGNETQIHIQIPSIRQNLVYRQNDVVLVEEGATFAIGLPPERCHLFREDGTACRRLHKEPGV
T2 sequence (P68183 whole entry): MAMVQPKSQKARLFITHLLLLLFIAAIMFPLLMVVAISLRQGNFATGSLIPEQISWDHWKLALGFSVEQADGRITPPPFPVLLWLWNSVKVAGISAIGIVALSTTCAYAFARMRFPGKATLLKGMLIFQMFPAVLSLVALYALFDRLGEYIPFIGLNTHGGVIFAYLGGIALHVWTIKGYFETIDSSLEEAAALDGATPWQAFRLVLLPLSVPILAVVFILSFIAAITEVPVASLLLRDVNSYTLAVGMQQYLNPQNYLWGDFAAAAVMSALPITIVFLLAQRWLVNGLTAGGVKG
T2 sequence (P02916 whole entry T177W): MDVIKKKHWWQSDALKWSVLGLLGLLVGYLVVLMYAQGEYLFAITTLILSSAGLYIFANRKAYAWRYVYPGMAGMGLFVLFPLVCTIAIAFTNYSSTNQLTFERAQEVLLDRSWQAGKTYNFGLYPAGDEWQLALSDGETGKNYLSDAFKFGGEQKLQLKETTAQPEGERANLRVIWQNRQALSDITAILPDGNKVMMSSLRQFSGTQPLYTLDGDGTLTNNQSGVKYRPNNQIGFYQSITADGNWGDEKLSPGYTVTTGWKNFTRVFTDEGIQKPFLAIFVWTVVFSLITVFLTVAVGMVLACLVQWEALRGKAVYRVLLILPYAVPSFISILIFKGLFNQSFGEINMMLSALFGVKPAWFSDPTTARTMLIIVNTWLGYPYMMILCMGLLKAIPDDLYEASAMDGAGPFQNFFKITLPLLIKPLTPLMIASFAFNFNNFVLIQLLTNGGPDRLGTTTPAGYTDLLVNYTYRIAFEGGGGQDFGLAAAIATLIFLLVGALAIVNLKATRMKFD
Experimental: After incubation (10 min, 37°C), samples were analyzed by CN-PAGE and (A) autoradiography or (B) Coomassie blue staining. […] At the indicated time (arrow), 1 mM maltooligosaccharides were added to the reaction mixture. […] After incubation (10 min, 37°C), samples were analyzed by CN-PAGE and autoradiography.
Fluorescence was recorded on a Cary Eclipse spectrofluorometer at 25°C. […] Excitation and emission wavelength were 280 nm and 350 nm, respectively (10 nm slit widths). […] The fluorescence emission was monitored over time and the signal was allowed to equilibrate after each addition for 180 s.
Competitive one-site ligand binding. […] The data (Fig. 2F, red curve) were fitted to a competitive one-site binding equation, defined as: [picture]

[3] = read-out: Kd of BtuF for its ligand; cited from earlier work
BtuCD = settings: cited from earlier work
HisQM = tested on: HisQM; set-up: method as in PMID 8662800; settings: cited from earlier work

T1 sequence (P68187 whole entry): as the sequence (P68187 whole entry) above
T1 sequence (P68183 whole entry): as the sequence (P68183 whole entry) above
T1 sequence (P02916 whole entry): as the sequence (P02916 whole entry T177W) above, with W177T counted along it

OC[C@H]1O[C@H](O[C@H]2[C@H](O)[C@@H](O)C(O)O[C@@H]2CO)[C@H](O)[C@@H](O)[C@@H]1O (mixture of isomers) [maltose]
effect of maltose on MalE-stimulated ATPase activity (Nd-MalFGK2 [1]; in disc and in detergent, maltose 1 mM, MalE 2 µM): significant inhibition of the ATPase activity | effect of maltose alone on basal ATPase activity (Nd-MalFGK2 [1]; no MalE): did not effect the basal ATPase activity | effect of maltose on binding of MalE to MalFGK2 on native-PAGE (Nd-MalFGK2 [2]): significantly reduced | dissociation of MalE from the transporter in nanodiscs (MalE-MalFGK2 complex): rapid loss of fluorescence quenching

B1: BtuF: substrate binding protein of the vitamin B12 transporter (protein, UniProt P37028 23-266, looked up)
Vitamin B12-binding protein: APRVITLSPANTELAFAAGITPVGVSSYSDYPPQAQKIEQVSTWQGMNLERIVALKPDLVIAWRGGNAERQVDQLASLGIKVMWVDATSIEQIANALRQLAPWSPQPDKAEQAAQSLLDQYAQLKAQYADKPKKRVFLQFGINPPFTSGKESIQNQVLEVCGGENIFKDSRVPWPQVSREQVLARSPQAIVITGGPDQIPKIKQYWGEQLKIPVIPLTSDWFERASPRIILAAQQLCNALSQVD
Kd [3]: ~15 nM | reduction of the BtuF-BtuCD interaction by saturating vitamin B12 (BtuCD): ~10^5 fold

B2: HisJ: binding protein of histidine transport, binds HisQM (protein, UniProt P0AEU0 23-260, looked up)
Histidine-binding periplasmic …: AIPQNIRIGTDPTYAPFESKNSQGELVGFDIDLAKELCKRINTQCTFVENPLDALIPSLKAKKIDAIMSSLSITEKRQQEIAFTDKLYAADSRLVVAKNSDIQPTVESLKGKRVGVLQGTTQETFGNEHWAPKGIEIVSYQGQDNIYSDLTAGRIDAAFQDEVAASEGFLKQPVGKDYKFGGPSVKDEKLFGVGTGMGLRKEDNELREALNKAFAEMRADGTYEKLAKKYFDFDVYGG
reduction of binding of HisJ to HisQM by saturating histidine (HisQM): 3 fold
